Results as given in patent US7320972B2, “4-Biarylyl-1-phenylazetidin-2-ones” (Microbia, Inc., priority 2003, dated 2008).

How the values were obtained:
[1] = test system: cholesterol absorption (serum 3H-cholesterol); assay: In Vivo Assay of Hypolipidemic Agents using the Rat Cholesterol Absorption Model; design: species or system Sprague-Dawley rats; details: peroral; for % inhibition at 10 mg/kg: 10 mg/kg (footnote 1); for inhibition in vivo at 1 mg/kg: po; for inhibition in vivo at 1 mg/kg / % inhibition at 1 mg/kg: serum 3H-cholesterol 3 h after cholesterol dose, vs vehicle control
Method in brief: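 Female Sprague-Dawley rats (150–250 g, 4–6 per group) were fasted overnight and dosed orally with compound in olive oil or vehicle. Thirty minutes later they received 3–5 μCi 3H-cholesterol orally in olive oil, and serum radioactivity was measured at 3 h. % inhibition = 100×(1−Ctest/Cctrl) at a fixed dose; ED50 is the dose giving half-maximal effect.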

[2] = serum 3H-cholesterol vs vehicle control

melting point	SMILES	inhibition in vivo at 1 mg/kg [1]	other results
110 °C	O=C1[C@H](CC[C@H](O)c2ccc(F)cc2)[C@@H](c2ccc(-c3ccc(O)cc3)cc2)N1c1ccc(F)cc1 [Example 2, (3R,4S)-1-(4-fluorophenyl)-3-[(3S)-3-(4-fluorophenyl)-3-hydroxypropyl]-4-(4′-hydroxybiphenyl-4-yl)azetidin-2-one]		% inhibition at 10 mg/kg [1, 2]: 54^1%
107 °C	O=C1[C@H](CC[C@H](O)c2ccc(F)cc2)[C@@H](c2ccc(-c3cccc(O)c3)cc2)N1c1ccc(F)cc1 [Example 4, (3R,4S)-1-(4-Fluorophenyl)-3-[(3S)-3-(4-fluorophenyl)-3-hydroxypropyl]-4-(3′-hydroxybiphenyl-4-yl)azetidin-2-one]	72%	
103 °C	COc1ccc(-c2ccc([C@@H]3[C@@H](CC[C@H](O)c4ccc(F)cc4)C(=O)N3c3ccc(F)cc3)cc2)cc1 [Example 5, (3R,4S)-1-(4-fluorophenyl)-3-[(3S)-3-(4-fluorophenyl)-3-hydroxypropyl]-4-(4′-methoxybiphenyl-4-yl)azetidin-2-one]		% inhibition at 10 mg/kg [1, 2]: 26^1%
113 °C	O=C1[C@H](CC[C@H](O)c2ccc(F)cc2)[C@@H](c2ccc(O)c(-c3ccccc3)c2)N1c1ccc(F)cc1 [Example 6, (3R,4S)-1-(4-fluorophenyl)-3-[(3S)-3-(4-fluorophenyl)-3-hydroxypropyl]-4-(6-hydroxybiphenyl-3-yl)azetidin-2-one]		
101 °C	O=C1[C@H](CC[C@H](O)c2ccc(F)cc2)[C@@H](c2ccc(-c3ccccc3O)cc2)N1c1ccc(F)cc1 [Example 7, (3R,4S)-1-(4-fluorophenyl)-3-[(3S)-3-(4-fluorophenyl)-3-hydroxypropyl]-4-(2′-hydroxybiphenyl-4-yl)azetidin-2-one]	30%	
111 °C	CS(=O)(=O)c1ccc(-c2ccc([C@@H]3[C@@H](CC[C@H](O)c4ccc(F)cc4)C(=O)N3c3ccc(F)cc3)cc2)cc1 [Example 8, (3R,4S)-1-(4-fluorophenyl)-3-[(3S)-3-(4-fluorophenyl)-3-hydroxypropyl]-4-[4′-(methylsulfonyl)biphenyl-4-yl]azetidin-2-one]	53%	
103 °C	COc1cc(-c2ccc([C@@H]3[C@@H](CC[C@H](O)c4ccc(F)cc4)C(=O)N3c3ccc(F)cc3)cc2)cc(OC)c1OC [Example 9, (3R,4S)-1-(4-fluorophenyl)-3-[(3S)-3-(4-fluorophenyl)-3-hydroxypropyl]-4-(3′,4′,5′-trimethoxybiphenyl-4-yl)azetidin-2-one]	40%	
104 °C	CS(=O)(=O)c1cccc(-c2ccc([C@@H]3[C@@H](CC[C@H](O)c4ccc(F)cc4)C(=O)N3c3ccc(F)cc3)cc2)c1 [Example 10, (3R,4S)-1-(4-fluorophenyl)-3-[(3S)-3-(4-fluorophenyl)-3-hydroxypropyl]-4-[3′-(methylsulfonyl)biphenyl-4-yl]azetidin-2-one]		% inhibition at 3 mg/kg ([1]; 3 mg/kg (footnote 2), serum 3H-cholesterol vs vehicle control): 54^2%
101 °C	COc1cccc(-c2ccc([C@@H]3[C@@H](CC[C@H](O)c4ccc(F)cc4)C(=O)N3c3ccc(F)cc3)cc2)c1OC [Example 11, (3R,4S)-4-(2′,3′-dimethoxybiphenyl-4-yl)-1-(4-fluorophenyl)-3-[(3S)-3-(4-fluorophenyl)-3-hydroxypropyl]azetidin-2-one]	28%	
	O=C1[C@H](CC[C@H](O)c2ccc(F)cc2)[C@@H](c2ccc(-c3cc(O)cc(O)c3)cc2)N1c1ccc(F)cc1 [Example 114, (3R,4S)-4-(3′,5′-dihydroxybiphenyl-4-yl)-1-(4-fluorophenyl)-3-[(3S)-3-(4-fluorophenyl)-3-hydroxypropyl]azetidin-2-one]	72%	
	O=C1[C@H](CC[C@H](O)c2ccc(F)cc2)[C@@H](c2ccc(-c3cccc(B(O)O)c3)cc2)N1c1ccc(F)cc1 [Example 115, (4′-{(2S,3R)-1-(4-fluorophenyl)-3-[(3S)-3-(4-fluorophenyl)-3-hydroxypropyl]-4-oxoazetidin-2-yl}biphenyl-3-yl)boronic Acid]	70%	
	O=C1[C@H](CC[C@H](O)c2ccc(F)cc2)[C@@H](c2ccc(-c3ccc([C@H]4O[C@@H](CO)[C@H](O)[C@@H](O)[C@@H]4O)cc3)cc2)N1c1ccc(F)cc1 [Example 116, (1R)-1,5-anhydro-1-(4′-{(2S,3R)-1-(4-fluorophenyl)-3-[(3S)-3-(4-fluorophenyl)-3-hydroxypropyl]-4-oxoazetidin-2-yl}biphenyl-4-yl)-L-glucitol]	81%	
	O=C1[C@H](CC[C@H](O)c2ccc(F)cc2)[C@@H](c2ccc(-c3cccc(C[C@@H]4O[C@H](CO)[C@@H](O)[C@H](O)[C@H]4O)c3)cc2)N1c1ccc(F)cc1 [Example 117]		% inhibition at 1 mg/kg [1]: 26%
	O=C1[C@H](CC[C@H](O)c2ccc(F)cc2)[C@@H](c2ccc(-c3cccc(S(=O)(=O)O)c3)cc2)N1c1ccc(F)cc1 [Example 118, 4′-{(2S,3R)-1-(4-fluorophenyl)-3-[(3S)-3-(4-fluorophenyl)-3-hydroxypropyl]-4-oxoazetidin-2-yl}biphenyl-3-sulfonic Acid]	61%	
	O=C1[C@H](CC[C@H](O)c2ccc(F)cc2)[C@@H](c2ccc(-c3cccc(S)c3)cc2)N1c1ccc(F)cc1 [Example 119, (3R,4S)-1-(4-fluorophenyl)-3-[(3S)-3-(4-fluorophenyl)-3-hydroxypropyl]-4-(3′-mercaptobiphenyl-4-yl)azetidin-2-one]	56%	
	C[N+](C)(C)c1cccc(-c2ccc([C@@H]3[C@@H](CC[C@H](O)c4ccc(F)cc4)C(=O)N3c3ccc(F)cc3)cc2)c1 [Example 120, 4′-{(2S,3R)-1-(4-fluorophenyl)-3-[(3S)-3-(4-fluorophenyl)-3-hydroxypropyl]-4-oxoazetidin-2-yl}-N,N,N-trimethylbiphenyl-3-aminium]		% inhibition at 1 mg/kg [1]: 23%
	O=C1[C@H](CC[C@H](O)c2ccc(F)cc2)[C@@H](c2ccc(-c3cccc(O)c3)cc2O)N1c1ccc(F)cc1 [Example 121, (3R,4S)-4-(3,3′-dihydroxybiphenyl-4-yl)-1-(4-fluorophenyl)-3-[(3S)-3-(4-fluorophenyl)-3-hydroxypropyl]azetidin-2-one]	72%	
	O=C1[C@H](CC[C@H](O)c2ccc(F)cc2)[C@@H](c2ccc(-c3cccc(P(=O)(O)O)c3)cc2)N1c1ccccc1 [Example 122, (4′-{(2S,3R)-3-[(3S)-3-(4-fluorophenyl)-3-hydroxypropyl]-4-oxo-1-phenylazetidin-2-yl}biphenyl-3-yl)phosphonic Acid]	67%	
	CS(=O)(=O)c1cccc(-c2ccc([C@@H]3[C@@H](CC[C@H](O)c4ccc(F)cc4)C(=O)N3c3ccccc3)c(O)c2)c1 [Example 123, (3R,4S)-3-[(3S)-3-(4-fluorophenyl)-3-hydroxypropyl]-4-[3-hydroxy-3′-(methylsulfonyl)biphenyl-4-yl]-1-phenylazetidin-2-one]	72%	
	O=C1[C@H](CC[C@H](O)c2ccc(F)cc2)[C@@H](c2ccc(-c3cccc(O)c3)cc2)N1c1ccc(-c2ccccc2)cc1 [Example 124, (3R,4S)-1-biphenyl-4-yl-3-[(3S)-3-(4-fluorophenyl)-3-hydroxypropyl]-4-(3′-hydroxybiphenyl-4-yl)azetidin-2-one]	48%	
	O=C1[C@H](CC[C@H](O)c2ccc(F)cc2)[C@@H](c2ccc(-c3ccc(O)cc3)cc2O)N1c1ccccc1 [Example 125, (3R,4S)-4-(3,4′-dihydroxybiphenyl-4-yl)-3-[(3S)-3-(4-fluorophenyl)-3-hydroxypropyl]-1-phenylazetidin-2-one]	64%	
	O=C1[C@H](CC[C@H](O)c2ccc(F)cc2)[C@@H](c2ccc(-c3ccc(P(=O)(O)O)cc3)cc2O)N1c1ccccc1 [Example 127, (4′-{(2S,3R)-3-[(3S)-3-(4-Fluorophenyl)-3-hydroxypropyl]-4-oxo-1-phenylazetidin-2-yl}-3′-hydroxybiphenyl-4-yl)phosphonic Acid]	58%	
	O=C1[C@H](CC[C@H](O)c2ccc(F)cc2)[C@@H](c2ccc(-c3ccc(S(=O)(=O)O)cc3)cc2O)N1c1ccccc1 [Example 128, Sodium 4′-{(2S,3R)-3-[(3S)-3-(4-fluorophenyl)-3-hydroxypropyl]-4-oxo-1-phenylazetidin-2-yl}-3′-hydroxybiphenyl-4-sulfonate]	60%	
